Data published in patent US20150119394A1, “Insulin-Like Growth Factor-1 Receptor Inhibitors” (Merck Sharp & Dohme Corp., priority 2012, published 2015).

Target: T1, intracellular kinase domain of human IGF-1R (GST fusion protein) (Homo sapiens, UniProt P08069)
T1 construct: IGFRK and IRK enzyme used for the assay was intracellular kinase domain of human IGF-1R; GST; made in house
Assay: In vitro IGF-1R kinase assay (HTRF)
Assay type: biochemical
Conditions: ATP 20 μM, IGFRK 0.25 nM
Experimental: The in vitro kinase assays using IGF-1R and IR kinase GST fusion proteins were conducted using a homogeneous time-resolved fluorescence (HTRF) format. Kinase reactions were carried out in a 384-well plate format in a final volume of 20 μL. The standard enzyme reaction buffer consisted of 50 mM Tris HCL (pH: 7.4), 1 mM EGTA, 10 mM MgCl2, 2 mM DTT, 0.01% Tween-20, IGF-1R/IR kinase enzyme, poly GT peptide substrate (Perkin Elmer [Ulight Glu-Tyr (4:1)]n) and ATP [concentration equivalent to Kmapp] […] Briefly, 2.5 μL enzyme and 2.5 μL inhibitor was preincubated for 10 minutes at 23° C. followed by the addition of 2.5 μL of poly GT substrate (final concentration of 50 nM). Reaction was initiated with the addition of 2.5 μL of ATP (final concentration of 20 μM for IGF-1R assay and 10 μM for IR assay). After 1 hour incubation at 23° C., the kinase reaction was stopped with the addition of 5 μL EDTA (final concentration of 10 mM in 20 μL). Europium cryptate—labeled antiphosphotyrosine antibody PY20 (5 μL) was added (final concentration of 2 nM) and the mixture was allowed to equilibrate for 1 hour at 23° C. followed by reading the plate in an Envision plate reader.
The intensity of light emission at 665 nm was directly proportional to the level of substrate phosphorylation. The IC50 values for inhibitors were determined by a four-parameter sigmoidal curve fit (Sigma plot or Graph pad).
IGFRK and IRK enzyme used for the assay was intracellular kinase domain of human IGF-1R and human IR cloned and expressed as GST fusion proteins using the baculovirus expression system and purified using glutathione—Sepharose column.

T1 sequence (P08069 999-1274 limits assumed): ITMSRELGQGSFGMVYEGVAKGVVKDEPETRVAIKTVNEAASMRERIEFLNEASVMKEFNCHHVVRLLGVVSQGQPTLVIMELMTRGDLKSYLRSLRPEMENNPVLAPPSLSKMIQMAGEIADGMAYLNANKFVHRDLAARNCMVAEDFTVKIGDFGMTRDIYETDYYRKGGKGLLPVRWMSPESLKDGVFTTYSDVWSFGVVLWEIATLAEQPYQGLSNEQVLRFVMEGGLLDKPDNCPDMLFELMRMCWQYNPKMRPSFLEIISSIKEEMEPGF

SMILES	IC50
COc1ccccc1-c1ccc(OC[C@@H]2CN(S(=O)(=O)c3c(C(N)=O)[nH]c4ccc(Cl)cc34)CCO2)cc1 [Compound 36, (S)-5-chloro-3-((2-(((2′-methoxy-[1,1′-biphenyl]-4-yl)oxy)methyl)morpholino)sulfonyl)-1H-indole-2-carboxamide]	81 nM
COc1ccc(-c2ccc(OC[C@@H]3CN(S(=O)(=O)c4c(C(N)=O)[nH]c5ccc(Cl)cc45)CCO3)cc2)cn1 [Compound 37, (S)-5-chloro-3-((2-((4-(6-methoxypyridin-3-yl)phenoxy)methyl)morpholino)sulfonyl)-1H-indole-2-carboxamide]	166 nM
NC(=O)c1[nH]c2ccc(Cl)cc2c1S(=O)(=O)N1CCO[C@H](COc2ccc(-c3ccccc3C(F)(F)F)cc2)C1 [Compound 38, (S)-5-chloro-3-((2-(((2′-(trifluoromethyl)-[1,1′-biphenyl]-4-yl)oxy)methyl)morpholino)sulfonyl)-1H-indole-2-carboxamide]	113 nM
COc1ccc(-c2ccc(OC[C@@H]3CN(S(=O)(=O)c4c(C(N)=O)[nH]c5ccc(Cl)cc45)CCO3)cc2)cc1 [Compound 39, (S)-5-chloro-3-((2-(((4′-methoxy-[1,1′-biphenyl]-4-yl)oxy)methyl)morpholino)sulfonyl)-1H-indole-2-carboxamide]	206 nM
NC(=O)c1[nH]c2ccc(Cl)cc2c1S(=O)(=O)N1CCO[C@H](COc2ccc(-c3ccccc3OC(F)(F)F)cc2)C1 [Compound 40, (S)-5-chloro-3-((2-(((2′-(trifluoromethoxy)-[1,1′-biphenyl]-4-yl)oxy)methyl)morpholino)sulfonyl)-1H-indole-2-carboxamide]	361 nM
Cc1ccccc1-c1ccc(OC[C@@H]2CN(S(=O)(=O)c3c(C(N)=O)[nH]c4ccc(Cl)cc34)CCO2)cc1 [Compound 41, (S)-5-chloro-3-((2-(((2′-methyl-[1,1′-biphenyl]-4-yl)oxy)methyl)morpholino)sulfonyl)-1H-indole-2-carboxamide]	184 nM
NC(=O)c1[nH]c2ccc(Cl)cc2c1S(=O)(=O)N1CCO[C@H](COc2ccc(-c3ccccc3F)cc2)C1 [Compound 42, (S)-5-chloro-3-((2-(((2′-fluoro-[1,1′-biphenyl]-4-yl)oxy)methyl)morpholino)sulfonyl)-1H-indole-2-carboxamide]	119 nM
COc1ccccc1-c1ccc(OC[C@@H]2CN(S(=O)(=O)c3c(C(N)=O)[nH]c4ccc(Cl)cc34)CCO2)cc1 [Compound 43, (S)-5-chloro-3-((2-(((2′-methoxy-[1,1′-biphenyl]-4-yl)oxy)methyl)morpholino)sulfonyl)-1H-indole-2-carboxamide]	> 100 nM
COc1ncccc1-c1ccc(OC[C@@H]2CN(S(=O)(=O)c3c(C(N)=O)[nH]c4ccc(Cl)cc34)CCO2)cc1 [Compound 44, (S)-5-chloro-3-((2-((4-(2-methoxypyridin-3-yl)phenoxy)methyl)morpholino)sulfonyl)-1H-indole-2-carboxamide]	46.4 nM
NC(=O)c1[nH]c2ccc(Cl)cc2c1S(=O)(=O)N1CCO[C@H](COc2ccc(-c3ccnc(F)c3)cc2)C1 [Compound 45, (S)-5-chloro-3-((2-((4-(2-fluoropyridin-4-yl)phenoxy)methyl)morpholino)sulfonyl)-1H-indole-2-carboxamide]	12.1 nM
NC(=O)c1[nH]c2ccc(Cl)cc2c1S(=O)(=O)N1CCO[C@H](COc2ccc(-c3ccc(F)nc3)cc2)C1 [Compound 46, (S)-5-chloro-3-((2-((4-(6-fluoropyridin-3-yl)phenoxy)methyl)morpholino)sulfonyl)-1H-indole-2-carboxamide]	12.8 nM
COc1cc(-c2ccc(OC[C@@H]3CN(S(=O)(=O)c4c(C(N)=O)[nH]c5ccc(Cl)cc45)CCO3)cc2)ccn1 [Compound 47, (S)-5-chloro-3-((2-((4-(2-methoxypyridin-4-yl)phenoxy)methyl)morpholino)sulfonyl)-1H-indole-2-carboxamide]	< 100 nM
NC(=O)c1[nH]c2ccc(Cl)cc2c1S(=O)(=O)N1CCO[C@H](COc2ccc(-c3cncnc3)cc2)C1 [Compound 48, (S)-5-chloro-3-((2-((4-(pyrimidin-5-yl)phenoxy)methyl)morpholino)sulfonyl)-1H-indole-2-carboxamide]	4 nM
NC(=O)c1[nH]c2ccc(Cl)cc2c1S(=O)(=O)N1CCO[C@H](COc2ccc(-c3cccnc3F)cc2)C1 [Compound 49, (S)-5-chloro-3-((2-((4-(2-fluoropyridin-3-yl)phenoxy)methyl)morpholino)sulfonyl)-1H-indole-2-carboxamide]	5 nM
Cc1ncccc1-c1ccc(OC[C@@H]2CN(S(=O)(=O)c3c(C(N)=O)[nH]c4ccc(Cl)cc34)CCO2)cc1 [Compound 50, (S)-5-chloro-3-((2-((4-(2-methylpyridin-3-yl)phenoxy)methyl)morpholino)sulfonyl)-1H-indole-2-carboxamide]	3.2 nM
Cc1ccc(-c2ccc(OC[C@@H]3CN(S(=O)(=O)c4c(C(N)=O)[nH]c5ccc(Cl)cc45)CCO3)cc2)cn1 [Compound 52, (S)-5-chloro-3-((2-((4-(6-methylpyridin-3-yl)phenoxy)methyl)morpholino)sulfonyl)-1H-indole-2-carboxamide]	> 100 nM
NC(=O)c1[nH]c2ccc(Cl)cc2c1S(=O)(=O)N1CCO[C@H](COc2ccccc2-c2ccccc2)C1 [Compound 54, (S)-3-((2-(([1,1′-biphenyl]-2-yloxy)methyl)morpholino)sulfonyl)-5-chloro-1H-indole-2-carboxamide]	> 1000 nM
NC(=O)c1[nH]c2ccc(Cl)cc2c1S(=O)(=O)N1CCO[C@H](COc2ccccc2-c2cccnc2)C1 [Compound 55, (S)-5-chloro-3-((2-((2-(pyridin-3-yl)phenoxy)methyl)morpholino)sulfonyl)-1H-indole-2-carboxamide]	> 1000 nM
NC(=O)c1[nH]c2ccc(Cl)cc2c1S(=O)(=O)N1CCO[C@H](COc2ccccc2-c2ccncc2)C1 [Compound 56, (S)-5-chloro-3-((2-((2-(pyridin-4-yl)phenoxy)methyl)morpholino)sulfonyl)-1H-indole-2-carboxamide]	> 1000 nM
NC(=O)c1[nH]c2ccc(Cl)cc2c1S(=O)(=O)N1CCO[C@H](COc2ccccc2-c2cccnc2F)C1 [Compound 57, (S)-5-chloro-3-((2-((2-(2-fluoropyridin-3-yl)phenoxy)methyl)morpholino)sulfonyl)-1H-indole-2-carboxamide]	> 1000 nM
COc1ccccc1-c1ccccc1OC[C@@H]1CN(S(=O)(=O)c2c(C(N)=O)[nH]c3ccc(Cl)cc23)CCO1 [Compound 58, (S)-5-chloro-3-((2-(((2′-methoxy-[1,1′-biphenyl]-2-yl)oxy)methyl)morpholino)sulfonyl)-1H-indole-2-carboxamide]	> 1000 nM
NC(=O)c1[nH]c2ccc(Cl)cc2c1S(=O)(=O)N1CCO[C@H](COc2ccccc2-c2ccc(F)nc2)C1 [Compound 59, (S)-5-chloro-3-((2-((2-(6-fluoropyridin-3-yl)phenoxy)methyl)morpholino)sulfonyl)-1H-indole-2-carboxamide]	> 1000 nM
NC(=O)c1[nH]c2ccc(Cl)cc2c1S(=O)(=O)N1CCO[C@H](COc2ccccc2-c2cncnc2)C1 [Compound 60, (S)-5-chloro-3-((2-((2-(pyrimidin-5-yl)phenoxy)methyl)morpholino)sulfonyl)-1H-indole-2-carboxamide]	> 1000 nM
COc1ccc(-c2ccccc2OC[C@@H]2CN(S(=O)(=O)c3c(C(N)=O)[nH]c4ccc(Cl)cc34)CCO2)cn1 [Compound 61, (S)-5-chloro-3-((2-((2-(6-methoxypyridin-3-yl)phenoxy)methyl)morpholino)sulfonyl)-1H-indole-2-carboxamide]	> 1000 nM
NC(=O)c1[nH]c2ccc(Cl)cc2c1S(=O)(=O)N1CCO[C@H](COc2ccccc2-c2ccccc2F)C1 [Compound 62, (S)-5-chloro-3-((2-(((2′-fluoro-[1,1′-biphenyl]-2-yl)oxy)methyl)morpholino)sulfonyl)-1H-indole-2-carboxamide]	> 1000 nM
Cc1ncccc1-c1ccccc1OC[C@@H]1CN(S(=O)(=O)c2c(C(N)=O)[nH]c3ccc(Cl)cc23)CCO1 [Compound 63, (S)-5-chloro-3-((2-((2-(2-methylpyridin-3-yl)phenoxy)methyl)morpholino)sulfonyl)-1H-indole-2-carboxamide]	> 1000 nM
NC(=O)c1[nH]c2ccc(Cl)cc2c1S(=O)(=O)N1CCO[C@H](COc2ccccc2-c2cccc(F)c2)C1 [Compound 64, (S)-5-chloro-3-((2-(((3′-fluoro-[1,1′-biphenyl]-2-yl)oxy)methyl)morpholino)sulfonyl)-1H-indole-2-carboxamide]	> 1000 nM
Cc1cc(OC[C@@H]2CN(S(=O)(=O)c3c(C(N)=O)[nH]c4ccc(Cl)cc34)CCO2)ccc1-c1cccnc1 [Compound 66, (S)-5-chloro-3-((2-((3-methyl-4-(pyridin-3-yl)phenoxy)methyl)morpholino)sulfonyl)-1H-indole-2-carboxamide]	18.7 nM
